Measurements reported in patent US20060128662A1, “Novel compounds for treatment of obesity” (Novo Nordisk A/S, priority 2003, published 2006).

tested on: FSK-4 cells; experiment: Assay (I): Glucose utilisation in a human epithelia cell line (FSK4 cells), D-(6-3H(N))-glucose; assay type: cell-based; settings: 24 hours incubation, Hill equation, read-out: GlucosFSK4 EC50
Protocol: Assay (I): Glucose Utilisation in a Human Epithelia Cell Line (FSK4 cells)
The ^3H-proton will first be released in the TCA cyclus and transported to the respiratory chain where it will be incorporated into water. The water is thereafter separated from the D-(6-^3H(N))-glucose by evaporation.
FSK-4 cells obtained from ATCC (Maryland, USA), are cultured in growth medium (McCoy's medium with the following addition 100 units/ml penicillin and streptomycin and 10% FCS (fetal calf serum)) at 37° C. and 5% CO2.
The cells are then incubated for another 24 hours at 37° C. and 5% CO2.
The half maximal concentration (EC50) and maximal efficacy (Emax) are calculated using the Hill equation in GraphPad Prism 3.0 (GraphPad software, Inc.). […] From the percentage increase in glucose utilisation the linear slope is calculated using the Michaelis-Menten equation.

| SMILES | EC50 [nM] |
| --- | --- |
| CC(C)(C)c1cc(/C=C(\C#N)S(=O)(=O)c2ccccn2)cc(C(C)(C)C)c1O [Example 3, (E)-3-(3,5-Di-tert!-butyl-4-hydroxy-phenyl)-2-(pyridine-2-sulfonyl)-acrylonitrile] | 9000 |
| N#C/C(=C\c1ccc(O)c([N+](=O)[O-])c1)S(=O)(=O)c1ccc(Cl)cc1 [Example 4, (E)-2-(4-Chloro-benzenesulfonyl)-3-(4-hydroxy-3-nitro-phenyl)-acrylonitrile] | > 10000 |
| Cn1ccnc1S(=O)(=O)/C(C#N)=C/c1cc(C(C)(C)C)c(O)c(C(C)(C)C)c1 [Example 6, (E)-3-(3,5-Di-tert-butyl-4-hydroxy-phenyl)-2-(1-methyl-1H-imidazole-2-sulfonyl)-acrylonitrile] | 8400 |
| C/C(=C(/C#N)S(=O)(=O)c1ccc(Cl)cc1)c1cc(C(C)(C)C)c(O)c(C(C)(C)C)c1 [Example 7, (E/Z)-2-(4-Chloro-benzenesulfonyl)-3-(3,5-di-tert-butyl-4-hydroxy-phenyl)-but-2-enenitrile] | 10000 |
| CC(C)(C)c1cc(/C=C(\C#N)S(=O)(=O)c2ccc([N+](=O)[O-])cc2)cc(C(C)(C)C)c1O [Example 9, (E)-3-(3,5-Di-tert-butyl-4-hydroxy-phenyl)-2-(4-nitro-benzenesulfonyl)-acrylonitrile] | 1400 |
| CC(C)(C)c1cc(/C=C(\C#N)S(=O)(=O)c2ccc(OC(F)(F)F)cc2)cc(C(C)(C)C)c1O [Example 11, (E)-3-(3,5-Di-tert-butyl-4-hydroxy-phenyl)-2-(4-trifluoromethoxy-benzenesulfonyl)-acrylonitrile] | 2200 |
| CC(C)(C)c1cc(/C=C(\C#N)S(=O)(=O)c2ccc(Cl)cc2)cc([N+](=O)[O-])c1O [Example 12, (E)-3-(3-tert-Butyl-4-hydroxy-5-nitro-phenyl)-2-(4-chloro-benzenesulfonyl)-acrylonitrile] | 6000 |
| COCCN(CCOC)C(=O)c1ccc(S(=O)(=O)/C(C#N)=C/c2cc(C(C)(C)C)c(O)c(C(C)(C)C)c2)cc1 [Example 13] | 4000 |
| CN(C)C(=O)c1ccc(S(=O)(=O)/C(C#N)=C/c2cc(C(C)(C)C)c(O)c(C(C)(C)C)c2)cc1 [Example 14] | 2300 |
| CC(O)CN(CC(C)O)C(=O)c1ccc(S(=O)(=O)/C(C#N)=C/c2cc(C(C)(C)C)c(O)c(C(C)(C)C)c2)cc1 (stereo not shown) [Example 15] | 10000 |
| CN1CCN(C(=O)c2ccc(S(=O)(=O)/C(C#N)=C/c3cc(C(C)(C)C)c(O)c(C(C)(C)C)c3)cc2)CC1 [Example 16, (E)-3-(3,5-Di-tert-butyl-4-hydroxy-phenyl)-2-[4-(4-methyl-piperazine-1-carbonyl)-benzenesulfonyl]-acrylonitrile] | 3200 |
| CC(C)(C)c1cc(/C=C(\C#N)S(=O)(=O)c2ccc(C(=O)NCCO)cc2)cc(C(C)(C)C)c1O [Example 17] | 7400 |
| CC1CN(C(=O)c2ccc(S(=O)(=O)/C(C#N)=C/c3cc(C(C)(C)C)c(O)c(C(C)(C)C)c3)cc2)CC(C)O1 (stereo not shown) [Example 18, (E)-3-(3,5-Di-tert-butyl-4-hydroxy-phenyl)-2-[4-(2,6-dimethyl-morpholine-4-carbonyl)-benzenesulfonyl]-acrylonitrile] | 1700 |
| CC(C)(C)c1cc(/C=C(\C#N)S(=O)(=O)c2ccc(C(=O)N3CCOCC3)cc2)cc(C(C)(C)C)c1O [Example 19, (E)-3-(3,5-Di-tert-butyl-4-hydroxy-phenyl)-2-[4-(morpholine-4-carbonyl)-benzenesulfonyl]-acrylonitrile] | 5100 |
| CC(C)(C)c1cc(/C=C(\C#N)S(=O)(=O)c2ccc(N)cc2)cc(C(C)(C)C)c1O [Example 20, (E)-2-(4-Amino-benzenesulfonyl)-3-(3,5-di-tert-butyl-4-hydroxy-phenyl)-acrylonitrile] | 2800 |
| CC(C)(C)c1cc(/C=C(\C#N)S(=O)(=O)/C(C#N)=C/c2cc(C(C)(C)C)c(O)c(C(C)(C)C)c2)cc(C(C)(C)C)c1O [Example 22] | 400 |
| CC(C)(C)c1cc(/C=C(\C#N)S(=O)(=O)c2cccs2)cc(C(C)(C)C)c1O [Example 23, (E)-3-(3,5-Di-tert-butyl-4-hydroxy-phenyl)-2-(thiophene-2-sulfonyl)-acrylonitrile] | 1200 |
| CC(C)(C)c1cc(/C=C(\C#N)S(=O)(=O)Cc2ccc(Cl)cc2)cc(C(C)(C)C)c1O [Example 24, (E)-2-(4-Chloro-phenylmethanesulfonyl)-3-(3,5-di-tert-butyl-4-hydroxy-phenyl)-acrylonitrile] | 700 |
| CC(C)(C)c1cc(/C=C(\C#N)S(=O)(=O)c2ccc(C(=O)N(CCO)CCO)cc2)cc(C(C)(C)C)c1O [Example 26] | 3700 |

| SMILES | EC50 [nM] |
| --- | --- |
| CC1COCC(C)N1C(=O)c1ccc(S(=O)(=O)/C(C#N)=C/c2cc(C(C)(C)C)c(O)c(C(C)(C)C)c2)cc1 (stereo not shown) [Example 27, 3-(3,5-Di-tert-butyl-4-hydroxy-phenyl)-2-[4-(3,5-dimethyl-morpholine-4-carbonyl)-benzenesulfonyl]-acrylonitrile] | 3500 |
| CC(C)(C)c1ccc(S(=O)(=O)/C(C#N)=C/c2cc(C(C)(C)C)c(O)c(C(C)(C)C)c2)cc1 [Example 29, 2-(4-tert-Butyl-benzenesulfonyl)-3-(3,5-di-tert-butyl-4-hydroxy-phenyl)-acrylonitrile] | 2900 |
| CC(C)(C)c1cc(/C=C(\C#N)S(=O)(=O)c2cccc3ccccc23)cc(C(C)(C)C)c1O [Example 30, 3-(3,5-Di-tert-butyl-4-hydroxy-phenyl)-2-(naphthalene-1-sulfonyl)-acrylonitrile] | 1000 |
| CC(C)(C)c1cc(/C=C(\C#N)S(=O)(=O)Cc2ccco2)cc(C(C)(C)C)c1O [Example 31, 3-(3,5-Di-tert-butyl-4-hydroxy-phenyl)-2-(furan-2-ylmethanesulfonyl)-acrylonitrile] | 2000 |
| Cc1ccc(S(=O)(=O)/C(C#N)=C/c2cc(C(C)(C)C)c(O)c(C(C)(C)C)c2)cc1 [Example 33, 3-(3,5-Di-tert-butyl-4-hydroxy-phenyl)-2-(toluene-4-sulfonyl)-acrylonitrile] | 1100 |
| CC(C)c1ccc(S(=O)(=O)/C(C#N)=C/c2cc(C(C)(C)C)c(O)c(C(C)(C)C)c2)cc1 [Example 34, 3-(3,5-Di-tert-butyl-4-hydroxy-phenyl)-2-(4-isopropyl-benzenesulfonyl)-acrylonitrile] | 2300 |
| CC(C)(C)c1cc(C=C(C#N)S(=O)(=O)c2cc(C(C)(C)C)c(O)c(C(C)(C)C)c2)cc(C(C)(C)C)c1O [Example 35, 2-(3,5-Di-tert-butyl-4-hydroxy-benzenesulfonyl)-3-(3,5-di-tert-butyl-4-hydroxy-phenyl)-acrylonitrile] | 3300 |
| CC(C)(C)c1cc(/C=C(\C#N)S(=O)(=O)c2ccc(S(C)(=O)=O)cc2)cc(C(C)(C)C)c1O [Example 38, 3-(3,5-Di-tert-butyl-4-hydroxy-phenyl)-2-(4-methanesulfonyl-benzenesulfonyl)-acrylonitrile] | 700 |
| CC(C)(C)c1cc(/C=C(\C#N)S(=O)(=O)c2cccc(OC(F)(F)F)c2)cc(C(C)(C)C)c1O [Example 39, 3-(3,5-Di-tert-butyl-4-hydroxy-phenyl)-2-(3-trifluoromethoxy-benzenesulfonyl)-acrylonitrile] | 500 |
| CC(C)(C)c1cc(/C=C(\C#N)S(=O)(=O)c2ccccc2OC(F)(F)F)cc(C(C)(C)C)c1O [Example 40, 3-(3,5-Di-tert-butyl-4-hydroxy-phenyl)-2-(2-trifluoromethoxy-benzenesulfonyl)-acrylonitrile] | 600 |
| CC(C)(C)c1cc(/C=C(\C#N)S(=O)(=O)c2ccc(Cl)cn2)cc(C(C)(C)C)c1O [Example 41, 2-(5-Chloro-pyridine-2-sulfonyl)-3-(3,5-di-tert-butyl-4-hydroxy-phenyl)-acrylonitrile] | 900 |
| CC(C)(C)c1cc(/C=C(\C#N)S(=O)(=O)c2ccccc2C(=O)O)cc(C(C)(C)C)c1O [Example 42] | 9000 |
| CC(C)(C)c1cc(/C=C(\C#N)S(=O)(=O)c2ccccc2C(=O)N2CCOCC2)cc(C(C)(C)C)c1O [Example 44, 3-(3,5-Di-tert-butyl-4-hydroxy-phenyl)-2-[2-(morpholine-4-carbonyl)-benzenesulfonyl]-acrylonitrile] | 3000 |
| CC(C)(C)c1cc(/C=C(\C#N)S(=O)(=O)c2cccc(C(=O)N3CCOCC3)c2)cc(C(C)(C)C)c1O [Example 45, 3-(3,5-Di-tert-butyl-4-hydroxy-phenyl)-2-[3-(morpholine-4-carbonyl)-benzenesulfonyl]-acrylonitrile] | 3000 |
| COc1ccc(S(=O)(=O)/C(C#N)=C/c2cc(C(C)(C)C)c(O)c(C(C)(C)C)c2)cc1 [Example 46, 3-(3,5-Di-tert-butyl-4-hydroxy-phenyl)-2-(4-methoxy-benzenesulfonyl)-acrylonitrile] | 1000 |
| COc1cccc(S(=O)(=O)/C(C#N)=C/c2cc(C(C)(C)C)c(O)c(C(C)(C)C)c2)c1 [Example 47, 3-(3,5-Di-tert-butyl-4-hydroxy-phenyl)-2-(3-methoxy-benzenesulfonyl)-acrylonitrile] | 800 |
| COc1ccc(S(=O)(=O)/C(C#N)=C/c2cc(C(C)(C)C)c(O)c(C(C)(C)C)c2)cc1OC [Example 48, 3-(3,5-Di-tert-butyl-4-hydroxy-phenyl)-2-(3,4-dimethoxy-benzenesulfonyl)-acrylonitrile] | 1500 |
| CC(C)(C)c1cc(/C=C(\C#N)S(=O)(=O)c2ccc(C3CC=CO3)cc2)cc(C(C)(C)C)c1O (stereo not shown) [Example 49, 3-(3,5-Di-tert-butyl-4-hydroxy-phenyl)-2-[4-(2,3-dihydro-furan-2-yl)-benzenesulfonyl]-acrylonitrile] | 2200 |
